{
  "source": "patent US6403631B1",
  "about": "“Method and compositions for enhancing pregnancy success in an animal” (Equitech Laboratories, Inc., priority 1995, dated 2002)",
  "key": {"[1]": {"system": "corpora lutea segments from cycling mares", "assay": "In vitro progesterone production by corpus luteum segments (Example 8)", "type": "cell-based", "conditions": "1, 10 or 100 nM melatonin; presence or absence of 100 ng hCG", "method": "Corpus luteum tissue was collected surgically and was dissected into segments approximately 2×2 mm^2. Segments were incubated in the following manner: [table] At completion of culture, segments were frozen until assayed for DNA content. All media progesterone concentrations were subsequently adjusted for DNA content of the appropriate segment."}, "cyclic pony mares [2]": {"system": "cyclic pony mares", "assay": "Melatonin at proestrus: plasma melatonin (RIA), E2, P4, LH (Example 2)", "conditions": "100 μg at proestrus", "experimental": "Treatments were administered at 09:59:45 at proestrus only. Test animals were divided into two groups: control (1.0 ml 0.9% saline, n=3), and melatonin (100 μg melatonin in 1.0 ml 0.9% saline, n=3). Ovarian follicular activity was monitored daily by rectal palpation and/or ultrasonography. Blood samples were collected every 10 minutes for a period of 8 hours at proestrus, estrus, and diestrus. Plasma melatonin concentrations were measured by radioimmunoassay (RIA) to determine the effect of control and melatonin treatments administered at proestrus."}, "accessory corpora lutea": {"system": "accessory corpora lutea", "assay": "Multiple melatonin administrations: accessory corpora lutea progesterone (Example 6)", "type": "in vivo, mares", "conditions": "treatment just prior to formation of accessory corpora lutea (day 35-45 of pregnancy)", "excerpt": "Mares are unique in that they develop and ovulate a new cohort of follicles around day 35-45 of pregnancy. […] Mares which received melatonin treatment at estrus also received daily melatonin treatment from day +35 to day +45 of pregnancy."}, "ewes [3]": {"system": "ewes", "assay": "Bolus melatonin at estrus in ewes: plasma progesterone (Example 12)", "type": "in vivo", "conditions": "400 μg i.v., 2 to 3 doses at estrus; Day 5 to Day 15 post-estrus; vs saline", "method": "A. Effect of bolus administration of melatonin on progesterone levels. The effect of bolus melatonin administration during estrus on plasma progesterone was determined. The duration of the estrous cycle was also measured. Estrous cycles of ten ewes were monitored by daily behavioral monitoring with a vasectomized ram. […] Blood samples were collected daily for an entire estrous cycle. Melatonin-treated ewes (n=5) were administered 400 μg melatonin i.v. in the early morning (07:30 to 08:30hr) and late afternoon (16:30 to 17:30hr). Five ewes were treated similarly, but were administered saline as control at the same times. Estrus duration was approximately 24 to 36 hr, thus ewes were administered 2 to 3 doses of melatonin to assure treatment during estrus. Progesterone levels were higher from Day 5 to Day 15 post-estrus in melatonin-treated ewes compared with saline-treated ewes. The increased progesterone concentrations following administration of melatonin, as compared to a saline control, is shown in FIG. 5B."}, "cyclic pony mares [4]": {"system": "cyclic pony mares", "assay": "Melatonin at proestrus or estrus: plasma hormones in the subsequent cycle (Example 3)", "type": "in vivo", "method": "Blood samples were collected every 30 minutes and were collected daily through the next subsequent estrus and ovulation."}, "sheep": {"system": "sheep", "conditions": "subcutaneous, multiple daily administrations; cited from earlier work"}, "mares [5]": {"system": "mares", "assay": "Bolus melatonin at estrus: conception, plasma progesterone and conceptus diameter (Example 1B)", "type": "in vivo", "conditions": "100 μg at estrus", "method": "B. Effect on conception of bolus administration of melatonin during estrus. […] Pregnancy was monitored by ultrasonography after day 10 post-ovulation. Blood samples were collected daily from the day of treatment to day 16 post-ovulation, when conceptuses were removed. Conceptus diameter was measured daily beginning day 10 post-ovulation with ultrasound."}, "pony mares": {"system": "pony mares", "assay": "Bolus melatonin at estrus: plasma E2, P4, LH and cycle length (Example 1A)", "type": "in vivo", "method": "A. Effect of bolus administration of melatonin on estradiol, progesterone, and luteinizing hormone levels. The effect of bolus melatonin administration during estrus on plasma estradiol (E2), progesterone (P4), and luteinizing hormone (LH) was determined. The interval from treatment to ovulation (OV1) and duration of the subsequent estrous cycle, ending at OV2, were also measured. Estrous cycles of eight pony mares were synchronized. Ovarian follicular activity was monitored daily, and sexual behavior was monitored with a stallion. Blood samples were collected daily. Upon detection of behavioral estrus and a 30 mm diameter follicle, mares were assigned to either a control group or melatonin group. Blood samples were collected for 8 hours (09:00 to 17:00) at 30 minute intervals. Melatonin-group mares were given an injection of 100 μg melatonin in 1 ml of sterile saline into the jugular vein, while control-group mares received 1 ml sterile saline."}, "corpus luteum": {"system": "corpus luteum", "assay": "Corpus luteum biopsy morphology after melatonin at estrus (Example 9)", "type": "in vivo, mares", "conditions": "light and electron microscopy", "excerpt": "Following collection of conceptuses as described in Examples 7 and 8, mares were taken to surgery and the corpus luteum biopsied. Biopsies were taken from each mare, control and melatonin-treated, for both light and electron microscopy."}, "[6]": {"system": "conceptus membrane segments", "assay": "In vitro estradiol production by day 16 conceptus membrane segments (Example 7)", "type": "cell-based, mares", "method": "Treatment with melatonin at estrus results in greater in vitro estradiol biosynthetic capability of day 16 conceptus membrane segments given androgen precursors. […] The extra-embryonic membranes were dissected into 4×4 mm^2 segments and cultured in the presence or absence of supplemental testosterone. Conceptus membrane fragments were cultured for 24 hours and the culture medium analyzed for estradiol.\nResults and conclusions. Following completion of culture, conceptus membrane segments were frozen and assayed for DNA content. All estradiol concentrations measured in culture media were then adjusted for the DNA content of the appropriate conceptus membrane segment."}, "mares [7]": {"system": "mares", "assay": "Melatonin at mid-diestrus: plasma progesterone (Example 4)", "type": "in vivo", "conditions": "100 μg on day 8 post-ovulation", "method": "Treatments were given at 10:59:45. Daily blood sampling was performed from estrus preceding treatment to 7 days after the next subsequent ovulation. Blood samples were collected every 30 minutes for 10 hours each day of sampling."}, "ewes [8]": {"system": "ewes", "conditions": "orally administered to ewes; cited from earlier work"}, "marmoset corpus luteum": {"system": "marmoset corpus luteum", "conditions": "in vivo perfusion, marmosets; cited from earlier work"}, "[9]": {"system": "human and bovine granulosa cells", "conditions": "in vitro; cited from earlier work"}, "hysterectomized mares": {"system": "hysterectomized mares", "assay": "Melatonin at estrus, morning v. afternoon, in hysterectomized mares: plasma progesterone (Example 5)", "type": "in vivo", "method": "Because hysterectomized mares are unable to generate a luteolytic secretion of prostaglandin F2α (PGF), luteal function and progesterone production continue longer than in uterine-intact mares.\nThe experiment was repeated in full using the same design with the exception that melatonin or control injections were administered in the afternoon rather than the morning. Blood samples were collected daily from day of treatment for 30 days post-ovulation."}, "cows": {"system": "cows", "assay": "Melatonin in cows: plasma progesterone (FIG. 5A)", "type": "in vivo", "conditions": "vs saline control, initial results", "text": "FIGS. 5A and 5B show the effect on plasma progesterone (P4) concentration (ng/ml), compared to a saline control, following administration of melatonin to cows and ewes in accordance with the subject invention."}, "[10]": {"conditions": "100 μg i.v. at estrus, vs control"}},
  "data": [
    {"smiles": "COc1ccc2[nH]cc(CCNC(C)=O)c2c1", "note": "[melatonin, N-acetyl-5-methoxytryptamine]", "values": [
      {"measurement": "media progesterone concentrations, adjusted for DNA content", "setting": "[1]", "result": "no effect"},
      {"measurement": "plasma LH concentrations", "setting": "cyclic pony mares [2]; 8-hour proestrus sampling, vs control", "result": "not different"},
      {"measurement": "plasma melatonin concentrations vs control", "setting": "cyclic pony mares [2]; by 3 hours post-treatment", "result": "not different"},
      {"measurement": "plasma estradiol concentrations over 8-hour sampling at proestrus", "setting": "cyclic pony mares [2]; no change in controls", "result": "decreased following treatment"},
      {"measurement": "mean plasma progesterone (P4) concentrations", "setting": "cyclic pony mares [2]; sampled at diestrus, p=0.001 vs control", "result": "significantly higher"},
      {"measurement": "mean plasma estradiol concentrations", "setting": "cyclic pony mares [2]; sampled at estrus, p=0.006 vs control", "result": "lower"},
      {"measurement": "mean plasma estradiol concentrations", "setting": "cyclic pony mares [2]; sampled at proestrus or diestrus, vs control", "result": "not different"},
      {"measurement": "mean plasma progesterone (P4) concentrations", "setting": "cyclic pony mares [2]; sampled at proestrus or estrus, vs control", "result": "not different"},
      {"measurement": "plasma melatonin concentrations after administration", "setting": "cyclic pony mares [2]; vs control, p=0.0001, RIA", "result": "higher"},
      {"measurement": "progesterone production by accessory corpora lutea", "setting": "accessory corpora lutea", "result": "enhanced progesterone production"},
      {"measurement": "progesterone levels", "setting": "ewes [3]", "result": "higher"},
      {"measurement": "plasma estradiol concentrations at time of treatment", "setting": "cyclic pony mares [4]; 100 μg at estrus", "result": "acute decline"},
      {"measurement": "estradiol concentrations during subsequent estrous cycle", "setting": "cyclic pony mares [4]; 100 μg at proestrus or estrus, p=0.001 vs control", "result": "different"},
      {"measurement": "plasma progesterone response, ovulation through next ovulation", "setting": "cyclic pony mares [4]; 100 μg at proestrus or estrus, p=0.007 vs control", "result": "higher"},
      {"measurement": "plasma LH concentrations", "setting": "cyclic pony mares [4]; 100 μg at proestrus or estrus, vs controls", "result": "did not differ"},
      {"measurement": "treatment at proestrus compared with treatment at estrus", "setting": "cyclic pony mares [4]; 100 μg melatonin", "result": "not different"},
      {"measurement": "plasma progesterone, standardized analysis", "setting": "cyclic pony mares [4]; ovulation to day 7 and backwards from next ovulation, p=0.01 vs control", "result": "higher"},
      {"measurement": "progesterone concentrations", "setting": "sheep", "result": "increased"},
      {"measurement": "plasma progesterone concentrations", "setting": "mares [5]; bred mares, to day 16 post-ovulation, p=0.026 vs control", "result": "increased"},
      {"measurement": "conceptus diameter", "setting": "mares [5]; day 13 to 15 post-ovulation, vs control", "result": "larger"},
      {"measurement": "early embryonic growth rate", "setting": "mares [5]; days 10 to 13 post-ovulation, ultrasound", "result": "did not appear to differ"},
      {"measurement": "pattern of E2 over the cycle", "setting": "pony mares; 100 μg i.v. at estrus, control pattern cubic, increases at OV1 and OV2", "result": "quadratic, with increases noted only at OV2"},
      {"measurement": "plasma P4 levels vs control", "setting": "pony mares; 100 μg i.v. at estrus, p<0.007", "result": "higher"},
      {"measurement": "duration of subsequent estrous cycle (OV1 to OV2)", "setting": "pony mares; [10]", "result": "did not differ between groups"},
      {"measurement": "interval from treatment to OV1", "setting": "pony mares; [10]", "result": "did not differ between groups"},
      {"measurement": "plasma LH levels", "setting": "pony mares; [10]", "result": "not different between groups"},
      {"measurement": "plasma E2 secretion following administration", "setting": "pony mares; 100 μg melatonin i.v. at estrus, 8 h sampling, p<0.001", "result": "declined"},
      {"measurement": "corpus luteum morphology", "setting": "corpus luteum", "result": "greater percent of cells with pleomorphic nuclei"},
      {"measurement": "estradiol concentrations in culture media, adjusted for DNA content", "setting": "[6]; conceptuses from mares treated at estrus, no supplemental testosterone, 24 hours culture", "result": "did not differ"},
      {"measurement": "estradiol production in vitro, adjusted for DNA content", "setting": "[6]; conceptuses from mares treated at estrus, with testosterone, p=0.01 vs all other groups", "result": "greater"},
      {"measurement": "plasma progesterone concentrations during 10-hour sampling period", "setting": "mares [7]", "result": "did not alter"},
      {"measurement": "plasma progesterone concentrations throughout rest of luteal phase", "setting": "mares [7]", "result": "Nor were plasma progesterone concentrations different"},
      {"measurement": "plasma progesterone concentrations following next subsequent ovulation", "setting": "mares [7]; until day 7 post-ovulation, p=0.034", "result": "higher"},
      {"measurement": "plasma progesterone concentrations", "setting": "ewes [8]", "result": "increased"},
      {"measurement": "progesterone production by corpus luteum", "setting": "marmoset corpus luteum", "result": "stimulated"},
      {"measurement": "production of progesterone", "setting": "[9]", "result": "enhanced"},
      {"measurement": "plasma progesterone concentrations", "setting": "hysterectomized mares; 100 μg at estrus, morning or afternoon, p<0.03 vs control", "result": "higher"},
      {"measurement": "plasma progesterone, melatonin-treated vs saline-treated mares", "setting": "hysterectomized mares; at approximate time of luteal regression (day 14 to 16)", "result": "no longer detectable differences"},
      {"measurement": "plasma progesterone (P4) concentrations", "setting": "cows", "result": "no effect"}
    ]},
    {"smiles": "C[C@]12CC[C@H]3[C@@H](CCC4=CC(=O)CC[C@@]43C)[C@@H]1CC[C@@H]2O", "note": "[Testosterone, testosterone]", "values": [
      {"measurement": "estradiol production by conceptuses in vitro", "setting": "[6]; testosterone supplied to the culture", "result": "significantly increased"}
    ]}
  ]
}
